Results: ChEMBL document CHEMBL4715844, “Structure-based virtual screening and biological evaluation of novel non-bisphosphonate farnesyl pyrophosphate synthase inhibitors” (Eur J Med Chem, 2020)
The source made the active and inactive calls. No cut-off for these calls is given here.

Experiments:
[1] = test system: HCT-116; experiment: Induction of apoptosis in human HCT116 cells assessed as necrotic cells at 50 uM after 48 hrs by Annexin V/FITC staining based flow cytometric analysis (reference value: 1.12%); type: functional
[2] = test system: HCT-116; experiment: Induction of apoptosis in human HCT116 cells assessed as late apoptotic cells at 50 uM after 48 hrs by Annexin V/FITC staining based flow cytometric analysis (reference value: 5.63%); type: functional
[3] = test system: HCT-116; experiment: Induction of ROS generation in human HCT116 cells assessed as intracellular ROS level at 25 uM by DCFH-DA staining-based flow cytometric analysis (reference value: 8.91%); type: functional
[4] = test system: HCT-116; experiment: Cytotoxicity against FPPS-positive human HCT116 cells assessed as cell viability at 100 uM in presence of FOH measured after 48 hrs by MTT assay; type: functional; conditions: read-out: Activity
[5] = test system: LoVo; experiment: Induction of apoptosis in human Lovo cells assessed as necrotic cells at 25 uM after 48 hrs by Annexin V/FITC staining based flow cytometric analysis (reference value: 0.321%); type: functional
[6] = test system: HCT-116; experiment: Induction of apoptosis in human HCT116 cells assessed as early apoptotic cells at 25 uM after 48 hrs by Annexin V/FITC staining based flow cytometric analysis (reference value: 1.26%); type: functional
[7] = test system: MDA-MB-231; experiment: Cytotoxicity against FPPS-negative human MDA-MB-231 cells assessed as reduction in cell viability measured after 48 hrs by MTT assay; type: functional, cell-based; conditions: MDA-MB-231, 48 h
[8] = test system: LoVo; experiment: Induction of apoptosis in human Lovo cells assessed as necrotic cells at 75 uM after 48 hrs by Annexin V/FITC staining based flow cytometric analysis (reference value: 0.321%); type: functional
[9] = test system: LoVo; experiment: Induction of apoptosis in human Lovo cells assessed as late apoptotic cells at 25 uM after 48 hrs by Annexin V/FITC staining based flow cytometric analysis (reference value: 1.84%); type: functional
[10] = test system: HCT-116; experiment: Induction of ROS generation in human HCT116 cells assessed as intracellular ROS level at 50 uM by DCFH-DA staining-based flow cytometric analysis (reference value: 8.91%); type: functional
[11] = test system: LoVo; experiment: Induction of apoptosis in human Lovo cells assessed as early apoptotic cells at 75 uM after 48 hrs by Annexin V/FITC staining based flow cytometric analysis (reference value: 6.76%); type: functional
[12] = test system: LoVo; experiment: Cytotoxicity against FPPS-positive human Lovo cells assessed as cell viability at 100 uM in presence of GGOH measured after 48 hrs by MTT assay; type: functional; conditions: read-out: Activity
[13] = test system: HCT-116; experiment: Cytotoxicity against FPPS-positive human HCT116 cells assessed as cell viability in presence of FOH measured after 48 hrs by MTT assay; type: functional, cell-based; conditions: HCT-116, 48 h
[14] = test system: LoVo; experiment: Induction of ROS generation in human Lovo cells assessed as intracellular ROS level at 25 uM by DCFH-DA staining-based flow cytometric analysis (reference value: 9.18%); type: functional
[15] = test system: HCT-116; experiment: Induction of apoptosis in human HCT116 cells assessed as viable cells at 50 uM after 48 hrs by Annexin V/FITC staining based flow cytometric analysis (reference value: 92%); type: functional; conditions: read-out: Activity
[16] = test system: HCT-116; experiment: Induction of apoptosis in human HCT116 cells assessed as viable cells at 75 uM after 48 hrs by Annexin V/FITC staining based flow cytometric analysis (reference value: 92%); type: functional; conditions: read-out: Activity
[17] = test system: MDA-MB-468; experiment: Growth inhibition of human MDA-MB-468 cells at 100 uM incubated for 48 hrs by MTT assay relative to control; conditions: MDA-MB-468, 48 h, read-out: GI
[18] = Reduction in Ras protein expression in FPPS-positive human HCT116 cells assessed as mean fluorescence intensity upto 75 uM measured after 48 hrs by Western blot analysis relative to untreated control; type: functional, HCT-116; conditions: dose microM <=75
[19] = Reduction in Ras protein expression in FPPS-positive human LoVo cells assessed as mean fluorescence intensity upto 75 uM measured after 48 hrs by Western blot analysis relative to untreated control; type: functional; conditions: dose microM <=75
[20] = test system: LoVo; experiment: Induction of apoptosis in human Lovo cells assessed as necrotic cells at 50 uM after 48 hrs by Annexin V/FITC staining based flow cytometric analysis (reference value: 0.321%); type: functional
[21] = test system: LoVo; experiment: Cytotoxicity against FPPS-positive human Lovo cells assessed as cell viability in presence of GGOH measured after 48 hrs by MTT assay; type: functional, cell-based
[22] = test system: HCT-116; experiment: Cytotoxicity against FPPS-positive human HCT116 cells assessed as cell viability in presence of GGOH measured after 48 hrs by MTT assay; type: functional, cell-based; conditions: HCT-116, 48 h
[23] = test system: LoVo; experiment: Induction of apoptosis in human Lovo cells assessed as viable cells at 75 uM after 48 hrs by Annexin V/FITC staining based flow cytometric analysis (reference value: 91.1%); type: functional; conditions: read-out: Activity
[24] = biological target: T1, Farnesyl pyrophosphate synthase (Rattus norvegicus, UniProt P05369); experiment: Binding affinity to rat FPPS expressed in Escherichia coli BL21 (DE3) by isothermal titration calorimetry
T1 sequence (P05369 whole entry): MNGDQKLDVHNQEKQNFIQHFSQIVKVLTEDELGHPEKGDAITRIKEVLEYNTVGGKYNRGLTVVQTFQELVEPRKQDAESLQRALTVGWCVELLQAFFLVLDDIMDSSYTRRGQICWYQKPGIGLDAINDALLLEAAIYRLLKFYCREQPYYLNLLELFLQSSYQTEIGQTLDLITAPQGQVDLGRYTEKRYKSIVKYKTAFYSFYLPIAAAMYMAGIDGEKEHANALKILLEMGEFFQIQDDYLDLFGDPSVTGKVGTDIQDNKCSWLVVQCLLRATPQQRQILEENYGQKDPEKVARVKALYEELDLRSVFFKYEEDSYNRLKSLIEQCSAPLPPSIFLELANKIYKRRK

[25] = test system: HCT-116; experiment: Induction of apoptosis in human HCT116 cells assessed as early apoptotic cells at 50 uM after 48 hrs by Annexin V/FITC staining based flow cytometric analysis (reference value: 1.26%); type: functional
[26] = test system: LoVo; experiment: Induction of apoptosis in human Lovo cells assessed as early apoptotic cells at 25 uM after 48 hrs by Annexin V/FITC staining based flow cytometric analysis (reference value: 6.76%); type: functional
[27] = test system: LoVo; experiment: Cytotoxicity against FPPS-positive human Lovo cells assessed as cell viability in presence of FOH measured after 48 hrs by MTT assay; type: functional, cell-based
[28] = test system: HCT-116; experiment: Induction of apoptosis in human HCT116 cells assessed as viable cells at 25 uM after 48 hrs by Annexin V/FITC staining based flow cytometric analysis (reference value: 92%); type: functional; conditions: read-out: Activity
[29] = test system: LoVo; experiment: Induction of ROS generation in human Lovo cells assessed as intracellular ROS level at 75 uM by DCFH-DA staining-based flow cytometric analysis (reference value: 9.18%); type: functional
[30] = test system: LoVo; experiment: Cytotoxicity against FPPS-positive human Lovo cells assessed as reduction in cell viability measured after 48 hrs by MTT assay
[31] = biological target: T2, Farnesyl pyrophosphate synthase (Rattus norvegicus) (UniProt P05369); experiment: Inhibition of rat FPPS expressed in Escherichia coli BL21 (DE3) using GPP and IPP as substrate at 10 uM incubated for 10 mins by microplate reader
T2 sequence (whole entry): T1 sequence (P05369 whole entry)

[32] = test system: LoVo; experiment: Induction of ROS generation in human Lovo cells assessed as intracellular ROS level at […] 50 by DCFH-DA staining-based flow cytometric analysis (reference value: 9.18%); type: functional; conditions: dose 50 µM
[33] = test system: LoVo; experiment: Induction of apoptosis in human Lovo cells assessed as early apoptotic cells at 50 uM after 48 hrs by Annexin V/FITC staining based flow cytometric analysis (reference value: 6.76%); type: functional
[34] = test system: LoVo; experiment: Growth inhibition of human LoVo cells at 100 uM incubated for 48 hrs by MTT assay relative to control; type: functional; conditions: read-out: GI
[35] = test system: LoVo; experiment: Induction of apoptosis in human Lovo cells assessed as late apoptotic cells at 75 uM after 48 hrs by Annexin V/FITC staining based flow cytometric analysis (reference value: 1.84%); type: functional
[36] = test system: HCT-116; experiment: Cytotoxicity against FPPS-positive human HCT116 cells assessed as cell viability at 100 uM in presence of GGOH measured after 48 hrs by MTT assay; type: functional; conditions: read-out: Activity
[37] = test system: LoVo; experiment: Induction of apoptosis in human Lovo cells assessed as late apoptotic cells at 50 uM after 48 hrs by Annexin V/FITC staining based flow cytometric analysis (reference value: 1.84%); type: functional
[38] = test system: HCT-116; experiment: Induction of apoptosis in human HCT116 cells assessed as late apoptotic cells at 25 uM after 48 hrs by Annexin V/FITC staining based flow cytometric analysis (reference value: 5.63%); type: functional
[39] = test system: HCT-116; experiment: Induction of apoptosis in human HCT116 cells assessed as necrotic cells at 25 uM after 48 hrs by Annexin V/FITC staining based flow cytometric analysis (reference value: 1.12%); type: functional
[40] = test system: HCT-116; experiment: Reduction in Ras protein expression in FPPS-positive human HCT116 cells upto 75 uM measured after 48 hrs by Western blot analysis; type: functional, cell-based; conditions: dose microM <=75, time 48.0 hrs
[41] = test system: LoVo; experiment: Cytotoxicity against FPPS-positive human Lovo cells assessed as cell viability at 100 uM in presence of FOH measured after 48 hrs by MTT assay; type: functional; conditions: read-out: Activity
[42] = test system: HCT-116; experiment: Cytotoxicity against FPPS-positive human HCT116 cells assessed as reduction in cell viability measured after 48 hrs by MTT assay; conditions: HCT-116, 48 h
[43] = test system: HCT-116; experiment: Growth inhibition of human HCT116 cells at 100 uM incubated for 48 hrs by MTT assay relative to control; type: functional; conditions: read-out: GI
[44] = test system: LoVo; experiment: Induction of apoptosis in human Lovo cells assessed as viable cells at 25 uM after 48 hrs by Annexin V/FITC staining based flow cytometric analysis (reference value: 91.1%); type: functional; conditions: read-out: Activity
[45] = test system: LoVo; experiment: Induction of apoptosis in human Lovo cells assessed as viable cells at 50 uM after 48 hrs by Annexin V/FITC staining based flow cytometric analysis (reference value: 91.1%); type: functional; conditions: read-out: Activity
[46] = test system: HCT-116; experiment: Induction of ROS generation in human HCT116 cells assessed as intracellular ROS level at 75 uM by DCFH-DA staining-based flow cytometric analysis (reference value: 8.91%); type: functional
[47] = test system: HCT-116; experiment: Induction of apoptosis in human HCT116 cells assessed as early apoptotic cells at 75 uM after 48 hrs by Annexin V/FITC staining based flow cytometric analysis (reference value: 1.26%); type: functional
[48] = test system: LoVo; experiment: Reduction in Ras protein expression in FPPS-positive human LoVo cells upto 75 uM measured after 48 hrs by Western blot analysis; type: functional; conditions: dose microM <=75, time 48.0 hrs
[49] = test system: HCT-116; experiment: Induction of apoptosis in human HCT116 cells assessed as necrotic cells at 75 uM after 48 hrs by Annexin V/FITC staining based flow cytometric analysis (reference value: 1.12%); type: functional
[50] = test system: HCT-116; experiment: Induction of apoptosis in human HCT116 cells assessed as late apoptotic cells at 75 uM after 48 hrs by Annexin V/FITC staining based flow cytometric analysis (reference value: 5.63%); type: functional

COc1ccccc1CN(CCS(=O)(=O)N1CCNCC1)S(=O)(=O)c1ccc(C)cc1
Activity [1]: 1.28%
Activity [2]: 14.6%
Activity [3]: 18.7%
viability at 100 µM [4]: 28.5%
Activity [5]: 2.04%
Activity [6]: 11.99%
IC50 [7]: > 100 µM
Activity [8]: 2.71%
Activity [9]: 4.29%
Activity [10]: 30.9%
Activity [11]: 32.7%
viability at 100 µM [12]: 14.8%
IC50 [13]: 81.1 µM
Activity [14]: 19.6%
viability at 50 µM [15]: 67.5%
viability at 75 µM [16]: 49.9%
inhibition of growth at 100 µM [17]: 80%
fold change (FC) [18]: 6.82
fold change (FC) [19]: 8.13
Activity [20]: 1.84%
IC50 [21]: 51 µM
IC50 [22]: 73.9 µM
viability at 75 µM [23]: 38.1%
Kd [24]: 14.3 µM
Activity [25]: 16.6%
Activity [26]: 17.8%
IC50 [27]: 55.6 µM
viability at 25 µM [28]: 80.9%
Activity [29]: 74.6%
IC50 [30]: 43.6 µM
inhibition [31]: 24%
Activity [32]: 48%
Activity [33]: 24.6%
inhibition of growth at 100 µM [34]: 80%
Activity [35]: 26.5%
viability at 100 µM [36]: 27.9%
Activity [37]: 21.2%
Activity [38]: 5.2%
Activity [39]: 1.98%
inhibition [40]: Active
viability at 100 µM [41]: 19%
IC50 [42]: 51.8 µM
inhibition of growth at 100 µM [43]: 80%
viability at 25 µM [44]: 75.9%
viability at 50 µM [45]: 52.3%
Activity [46]: 60.8%
Activity [47]: 25.8%
inhibition [48]: Active
Activity [49]: 3.86%
Activity [50]: 20.4%
